Laboratory results taken from patent US20030203373A1 (priority 2002, published 2003).
“And” between values parts separate entries of the source, which are not always exact repeats. Equal entries are not always repeated. “Also recorded” adds a separate entry of the source.

System: normotensive Wister rats
Test: Bradykinin-potentiating effect on blood pressure in anaesthetized normotensive rats
Assay type: in vivo, rat
Description: In the in vivo experiments with normotensive rats the animals were previously anaesthetized and after blood pressure stabilization treated with a constant amount of bradykinin. Subsequently, either Captopril or human BPP were administered, again followed by a constant amount of bradykinin. Afterwards the maximum blood pressure drop was determined and, on the basis of bradykinin as a factor 1, the potentiating factor was determined. In the same way, the systolic and diastolic blood pressure, the percentage middle pressure decrease and the time required to come back to the baseline values were measured (see tables 4a to 4j). A detailed experimental description is given below.
2. Measurement of Blood Pressure in Normotensive and Hypertensive Rats
The trials were conducted on female anaesthetized normotensive Wister rats with weight ranging from 210 to 240 g.
The peptide pANP48-57 used for the in vivo assays was synthesized by Biosynthan (Berlin) with a HPLC-determined purity of 98%.
Anaesthetizing was performed by i.p.-administration of 1 ml/kg Ketavit (100 mg/ml)+Rampun (2%).
In order to conduct the blood pressure measurement, a polyethylene catheter was introduced into the Aorta femuralis and connected with a pressure transducer. A Statham-P23A pressure-transducer was linked to a Gould Polygraph and used to determine the arterial blood pressure. A Hg-manometer was used to calibrate the system.
All substances were dissolved and diluted in a physiological sodium chloride solution and introduced into the Vena jugularis via a catheter.
After stabilization of blood pressure (after about 10 minutes) […] body weight of a 2,5 μM bradykinin-solution (Sigma) was administered.
The middle pressure was determined from the measured diastolic (pd) and systolic (ps) blood pressure by using the following formula: pm=(ps−Pd)×0,42+pd.

[1] = S605 1 × 10^−3 M + Bradykinin 2.5 × 10^−6 M
[2] = S605 1 × 10^−3 M + Bradykinin 2.5 × 10^−6 M, individual female rat
[3] = S605 1.5 × 10^−3 M + Bradykinin 2.5 × 10^−6 M
[4] = S605 1.5 × 10^−3 M + Bradykinin 2.5 × 10^−6 M, Rat (female) 216 g, Table 4j
[5] = S605 1.5 × 10^−3 M + Bradykinin 2.5 × 10^−6 M, individual female rat
[6] = S605 1.5 × 10^−4 M + Bradykinin 2.5 × 10^−6 M
[7] = S605 1.5 × 10^−4 M + Bradykinin 2.5 × 10^−6 M, individual female rat
[8] = S605 5 × 10^−3 M + Bradykinin 2.5 × 10^−6 M
[9] = S605 5 × 10^−3 M + Bradykinin 2.5 × 10^−6 M, Rat (female) 211 g, Table 4i
[10] = S605 5 × 10^−3 M + Bradykinin 2.5 × 10^−6 M, individual female rat

SMILES: CC(C)C[C@H](NC(=O)[C@H](C)N)C(=O)N[C@@H](CO)C(=O)N1CCC[C@H]1C(=O)N[C@@H](CC(C)C)C(=O)N1CCC[C@H]1C(=O)N[C@@H](CCC(=O)O)C(=O)N[C@H](C(=O)N1CCC[C@H]1C(=O)N1CCC[C@H]1C(=O)O)C(C)C [Peptide S545]
- maximal drop of blood pressure [1]: 48.5%
- potentiating factor (Bradykinin = 1) [1]: 1.49
- Blood pressure minimal, PM (middle pressure) = (Ps − Pd) × 0.42 + Pd [2]: 39 mg Hg
- Blood pressure minimal, diastolic [2]: 28 mg Hg
- Blood pressure minimal, systolic [2]: 55 mg Hg
- time to reach the baseline value [2]: time to reach the baseline value (t = 31 s)
- ΔP (middle pressure drop) [2]: 37 mg Hg
- ΔP (middle pressure drop), percentage [2]: 48.5%
- maximal drop of blood pressure [3]: 50.5% ± 5.2
- potentiating factor (Bradykinin = 1) [3]: 1.61
- Blood pressure minimal, PM (middle pressure) = (Ps − Pd) × 0.42 + Pd [4]: 39 mg Hg
- Blood pressure minimal, diastolic [4]: 28 mg Hg
- Blood pressure minimal, systolic [4]: 55 mg Hg
- following short overreaction at maximum (systolic/diastolic) [4]: following short overreaction at maximum of 106/80
- time to reach the baseline value [4]: time to reach the baseline value (t = 20 s)
- ΔP (middle pressure drop) [4]: 43 mg Hg
- ΔP (middle pressure drop), percentage [4]: 52.4%
- Blood pressure minimal, PM (middle pressure) = (Ps − Pd) × 0.42 + Pd [5]: 40 mg Hg and 34 mg Hg
- Blood pressure minimal, diastolic [5]: 34 mg Hg and 26 mg Hg
- Blood pressure minimal, systolic [5]: 49 mg Hg and 45 mg Hg
- time to reach the baseline value [5]: time to reach the baseline value (t = 46 s); also recorded: time to reach the baseline value (t = 57 s)
- ΔP (middle pressure drop) [5]: 32 mg Hg and 41 mg Hg
- ΔP (middle pressure drop), percentage [5]: 44.6% and 54.4%
- maximal drop of blood pressure [6]: 38.9% ± 8.3
- potentiating factor (Bradykinin = 1) [6]: 1.24
- Blood pressure minimal, PM (middle pressure) = (Ps − Pd) × 0.42 + Pd [7]: 48 mg Hg and 34 mg Hg and 33 mg Hg
- Blood pressure minimal, diastolic [7]: 40 mg Hg and 26 mg Hg and 28 mg Hg
- Blood pressure minimal, systolic [7]: 60 mg Hg and 46 mg Hg and 40 mg Hg
- time to reach the baseline value [7]: time to reach the baseline value (t = 26 s); also recorded: time to reach the baseline value (t = 36 s); also recorded: time to reach the baseline value (t = 23 s)
- ΔP (middle pressure drop) [7]: 22 mg Hg and 32 mg Hg and 20 mg Hg
- ΔP (middle pressure drop), percentage [7]: 31.4% and 47.9% and 37.4%
- maximal drop of blood pressure [8]: 63.8% ± 3.6
- potentiating factor (Bradykinin = 1) [8]: 2.04
- Blood pressure minimal, PM (middle pressure) = (Ps − Pd) × 0.42 + Pd [9]: 44 mg Hg
- Blood pressure minimal, diastolic [9]: 35 mg Hg
- Blood pressure minimal, systolic [9]: 56 mg Hg
- following short overreaction at maximum (systolic/diastolic) [9]: following short overreaction at maximum of 141/108
- time to reach the baseline value [9]: time to reach the baseline value (t = 44 s)
- ΔP (middle pressure drop) [9]: 70 mg Hg
- ΔP (middle pressure drop), percentage [9]: 61.4%
- following short overreaction at maximum of (systolic/diastolic blood pressure) (S605 5 × 10^−3 M + Bradykinin 2.5 × 10^−6 M, after return to baseline): following short overreaction at maximum of 112/84; also recorded: following short overreaction at maximum of 154/112
- Blood pressure minimal, PM (middle pressure) = (Ps − Pd) × 0.42 + Pd [10]: 24 mg Hg and 40 mg Hg
- Blood pressure minimal, diastolic [10]: 16 mg Hg and 32 mg Hg
- Blood pressure minimal, systolic [10]: 36 mg Hg and 52 mg Hg
- time to reach the baseline value [10]: time to reach the baseline value (t = 36 s); also recorded: time to reach the baseline value (t = 87 s)
- ΔP (middle pressure drop) [10]: 52 mg Hg and 66 mg Hg
- ΔP (middle pressure drop), percentage [10]: 68% and 62.1%
- bradykinin-potentiating effect (short-time decrease of blood pressure induced by bradykinin) (normotensive rats, result in words): concentration dependent bradykinin-potentiating
- fold higher molecular concentration in comparison to Captopril required for the bradykinin-potentiating effect in vivo (relative to Captopril): 10 fold
